This is an account of results in patent US9918975B2, “Method for improving dissolution of anticoagulant agent” (Daiichi Sankyo Company, Limited, priority 2010, dated 2018).

The series is described as follows: Solubility of compound I in aqueous solutions. In kind it is physicochemical.

SMILES strings stand for the structures.

For `CN1CCc2nc(C(=O)N[C@@H]3C[C@@H](C(=O)N(C)C)CC[C@@H]3NC(=O)C(=O)Nc3ccc(Cl)cn3)sc2C1` [compound I, N^1-(5-chloropyridin-2-yl)-N^2-((1S,2R,4S)-4-[(dimethylamino)carbonyl]-2-{[(5-methyl-4,5,6,7-tetrahydrothiazolo[5,4-c]pyridin-2-yl)carbonyl]amino}cyclohexyl)ethanediamide], the solubility result was “reduced solubility” (neutral aqueous solutions (e.g., a neutral buffer)) and “favorable solubility” (strongly acidic aqueous solutions).
